Reference: article PMC5612656, “In vitro and in vivo effects of 2,4 diaminoquinazoline inhibitors of the decapping scavenger enzyme DcpS: Context-specific modulation of SMN transcript levels” (PLoS ONE, 2017)

System: spinal cord transcriptome
Assay: RNA-Seq of spinal cord tissue from 2B/- and 2B/+ mice
Type: in vivo, mouse
[1] = spinal cord, 2B/- RG3039 vs 2B/- vehicle, adjusted p-value 2.55E-55

Nc1nc(N)c2c(OCC3CCN(Cc4c(Cl)cccc4Cl)CC3)cccc2n1 [RG3039]
log2(fold-change) (2B-Veh vs 2B-RG3039, gene Osbpl3): 0.3051
log2(fold-change) (2B-Veh vs 2B-RG3039, gene Phf13): 0.2527
log2(fold-change) (2B-Veh vs 2B-RG3039, gene Pigz): -0.3408
log2(fold-change) (2B-Veh vs 2B-RG3039, gene Pik3r1): -0.2417
log2(fold-change) (2B-Veh vs 2B-RG3039, gene Plcb1): -0.2064
log2(fold-change) (2B-Veh vs 2B-RG3039, gene Pld2): 0.3673
log2(fold-change) (2B-Veh vs 2B-RG3039, gene Prr18): -0.2462
log2(fold-change) (2B-Veh vs 2B-RG3039, gene Ptbp1): 0.3576
log2(fold-change) (2B-Veh vs 2B-RG3039, gene Ptpdc1): -0.3585
log2(fold-change) (2B-Veh vs 2B-RG3039, gene Pvrl3): 0.3266
log2(fold-change) (2B-Veh vs 2B-RG3039, gene Rab31): -0.2849
log2(fold-change) (2B-Veh vs 2B-RG3039, gene Ralb): 0.1805
log2(fold-change) (2B-Veh vs 2B-RG3039, gene Rapgef3): -0.3391
log2(fold-change) (2B-Veh vs 2B-RG3039, gene Rasal1): -0.2345
log2(fold-change) (2B-Veh vs 2B-RG3039, gene Rgs19): 0.2532
log2(fold-change) (2B-Veh vs 2B-RG3039, gene Serpina3n): -0.2457
log2(fold-change) (2B-Veh vs 2B-RG3039, gene Sh3pxd2a): 0.3024
log2(fold-change) (2B-Veh vs 2B-RG3039, gene Slc39a11): 0.2556
log2(fold-change) (2B-Veh vs 2B-RG3039, gene Sox13): 0.3712
log2(fold-change) (2B-Veh vs 2B-RG3039, gene Spon1): -0.207
log2(fold-change) (2B-Veh vs 2B-RG3039, gene Srsf9): 0.255
log2(fold-change) (2B-Veh vs 2B-RG3039, gene Stxbp3a): -0.2437
log2(fold-change) (2B-Veh vs 2B-RG3039, gene Swap70): 0.2496
log2(fold-change) (2B-Veh vs 2B-RG3039, gene Tfrc): 0.316
log2(fold-change) (2B-Veh vs 2B-RG3039, gene Tlcd1): 0.158
log2(fold-change) (2B-Veh vs 2B-RG3039, gene Tmod1): -0.2447
log2(fold-change) (2B-Veh vs 2B-RG3039, gene Tubb2b): 0.2818
log2(fold-change) (2B-Veh vs 2B-RG3039, gene Vgf): 0.2475
log2(fold-change) (2B-Veh vs 2B-RG3039, gene Vps37b): 0.2543
log2(fold-change) (2B-Veh vs 2B-RG3039, gene Wbscr27): -0.2613
log2(fold-change) (2B-Veh vs 2B-RG3039, gene Wnt7b): 0.3209
log2(fold-change) (2B-Veh vs 2B-RG3039, gene Zfp276): -0.2722
log2(fold-change) (2B-Veh vs 2B-RG3039, gene Zfp692): -0.2503
log2(fold-change) (2B-Veh vs 2B-RG3039, gene Zfp839): -0.2535
log2(fold-change) (2B-Veh vs 2B-RG3039, gene Zhx3): -0.2128
log2(fold-change) (2B-Veh vs 2B-RG3039, gene Zmat1): -0.3673
log2(fold-change) (mouse, in vivo): 0.2853
log2(fold-change) Chodl transcript (spinal cord RNA-Seq, 2B- RG vs. 2B+ Veh (sheet WT-Veh_vs_2B-859_all), adjusted p-value 1.03E-56): -2.122
log2(fold-change) 4632404H12Rik transcript (spinal cord RNA-Seq, 2B- RG vs. 2B+ Veh (sheet WT-Veh_vs_2B-859_all), adjusted p-value 1.30E-36): 1.504
log2(fold-change) Spp1 transcript (spinal cord RNA-Seq, 2B- RG vs. 2B+ Veh (sheet WT-Veh_vs_2B-859_all), adjusted p-value 1.87E-42): -1.107
log2(fold-change) Gm26924 transcript (spinal cord RNA-Seq, 2B- RG vs. 2B+ Veh (sheet WT-Veh_vs_2B-859_all), adjusted p-value 5.93E-43): -1.355
log2(fold-change) Ahnak2 transcript (spinal cord RNA-Seq, 2B- RG vs. 2B+ Veh (sheet WT-Veh_vs_2B-859_all), adjusted p-value 8.66E-40): -1.26
log2(fold-change) Tgtp1 transcript (spinal cord RNA-Seq, RG3039 2B/- vs. vehicle 2B/-, adjusted p-value 0.000273937): 1.848
log2(fold-change) Cfd transcript (spinal cord RNA-Seq, RG3039 2B/- vs. vehicle 2B/-, adjusted p-value 0.000300401): -2.755
log2(fold-change) Kcnb2 transcript (spinal cord RNA-Seq, RG3039 2B/- vs. vehicle 2B/-, adjusted p-value 0.000330855): 1.602
log2(fold-change) Fabp4 transcript (spinal cord RNA-Seq, RG3039 2B/- vs. vehicle 2B/-, adjusted p-value 0.000349974): -2.327
log2(fold-change) Reg3b transcript (spinal cord RNA-Seq, RG3039 2B/- vs. vehicle 2B/-, adjusted p-value 0.00104281): 1.9386
log2(fold-change) Saa3 transcript (spinal cord RNA-Seq, RG3039 2B/- vs. vehicle 2B/-, adjusted p-value 0.0020931): -2.03
log2(fold-change) Tgtp2 transcript (spinal cord RNA-Seq, RG3039 2B/- vs. vehicle 2B/-, adjusted p-value 0.00223451): 1.688
log2(fold-change) Slfn10-ps transcript (spinal cord RNA-Seq, RG3039 2B/- vs. vehicle 2B/-, adjusted p-value 0.00233365): 1.807
log2(fold-change) Gm10629 transcript (spinal cord RNA-Seq, RG3039 2B/- vs. vehicle 2B/-, adjusted p-value 0.00341009): 1.585
log2(fold-change) Myh4 transcript (spinal cord RNA-Seq, RG3039 2B/- vs. vehicle 2B/-, adjusted p-value 0.0039906): -2.1375
log2(fold-change) Amtn transcript (spinal cord RNA-Seq, RG3039 2B/- vs. vehicle 2B/-, adjusted p-value 0.00445577): 1.585
log2(fold-change) Gm21807 transcript (spinal cord RNA-Seq, RG3039 2B/- vs. vehicle 2B/-, adjusted p-value 0.00737848): 1.663
log2(fold-change) Ak3l2-ps transcript (spinal cord RNA-Seq, RG3039 2B/- vs. vehicle 2B/-, adjusted p-value 0.0076012): 1.688
log2(fold-change) Gm25014 transcript (spinal cord RNA-Seq, RG3039 2B/- vs. vehicle 2B/-, adjusted p-value 0.00761921): 1.585
log2(fold-change) Mrgprd transcript (spinal cord RNA-Seq, RG3039 2B/- vs. vehicle 2B/-, adjusted p-value 0.0177741): 1.807
log2(fold-change) Ucp1 transcript (spinal cord RNA-Seq, RG3039 2B/- vs. vehicle 2B/-, adjusted p-value 0.0259172): -1.858
log2(fold-change) Scn10a transcript (spinal cord RNA-Seq, RG3039 2B/- vs. vehicle 2B/-, adjusted p-value 0.0498434): 1.7
log2(fold-change) 4930481A15Rik transcript (spinal cord RNA-Seq, RG3039 2B/- vs. vehicle 2B/-, adjusted p-value 1.16E-05): -2.273
log2(fold-change) Gm13558 transcript (spinal cord RNA-Seq, RG3039 2B/- vs. vehicle 2B/-, adjusted p-value 1.21E-05): -2
log2(fold-change) Itga2 transcript (spinal cord RNA-Seq, RG3039 2B/- vs. vehicle 2B/-, adjusted p-value 1.25E-05): 1.883
log2(fold-change) Ifi44 transcript (spinal cord RNA-Seq, RG3039 2B/- vs. vehicle 2B/-, adjusted p-value 1.41E-22): 2.678
log2(fold-change) Etnppl transcript (spinal cord RNA-Seq, RG3039 2B/- vs. vehicle 2B/-, adjusted p-value 2.00E-23): -2.764
log2(fold-change) Ada transcript (spinal cord RNA-Seq, RG3039 2B/- vs. vehicle 2B/-, adjusted p-value 2.62E-17): -2.097
log2(fold-change) Sgk1 transcript (spinal cord RNA-Seq, RG3039 2B/- vs. vehicle 2B/-, adjusted p-value 2.77E-28): -1.812
log2(fold-change) Dpep1 transcript (spinal cord RNA-Seq, RG3039 2B/- vs. vehicle 2B/-, adjusted p-value 3.30E-07): -2.385
log2(fold-change) Tmem52 transcript (spinal cord RNA-Seq, RG3039 2B/- vs. vehicle 2B/-, adjusted p-value 3.37E-32): -2.209
log2(fold-change) A830073O21Rik transcript (spinal cord RNA-Seq, RG3039 2B/- vs. vehicle 2B/-, adjusted p-value 3.74E-09): 1.69
log2(fold-change) Usp18 transcript (spinal cord RNA-Seq, RG3039 2B/- vs. vehicle 2B/-, adjusted p-value 4.16E-13): 1.709
log2(fold-change) Slc10a6 transcript (spinal cord RNA-Seq, RG3039 2B/- vs. vehicle 2B/-, adjusted p-value 4.39E-06): -2.443
log2(fold-change) Oas1a transcript (spinal cord RNA-Seq, RG3039 2B/- vs. vehicle 2B/-, adjusted p-value 4.66E-07): 1.712
log2(fold-change) Plin4 transcript (spinal cord RNA-Seq, RG3039 2B/- vs. vehicle 2B/-, adjusted p-value 4.90E-27): -3.356
log2(fold-change) Map3k6 transcript (spinal cord RNA-Seq, RG3039 2B/- vs. vehicle 2B/-, adjusted p-value 5.02E-31): -2.942
log2(fold-change) 8430408G22Rik transcript (spinal cord RNA-Seq, RG3039 2B/- vs. vehicle 2B/-, adjusted p-value 5.30E-09): -1.92
log2(fold-change) Fmo2 transcript (spinal cord RNA-Seq, RG3039 2B/- vs. vehicle 2B/-, adjusted p-value 6.18E-07): -2.118
log2(fold-change) Tmem82 transcript (spinal cord RNA-Seq, RG3039 2B/- vs. vehicle 2B/-, adjusted p-value 7.17E-13): -2.075
log2(fold-change) Sds transcript (spinal cord RNA-Seq, RG3039 2B/- vs. vehicle 2B/-, adjusted p-value 7.23E-13): -2.356
log2(fold-change) Gp2 transcript (spinal cord RNA-Seq, RG3039 2B/- vs. vehicle 2B/-, adjusted p-value 7.46E-06): 1.536
log2(fold-change) Gm11827 transcript (spinal cord RNA-Seq, RG3039 2B/- vs. vehicle 2B/-, adjusted p-value 7.82E-08): -2.193
log2(fold-change) Chml transcript (spinal cord RNA-Seq, RG3039 2B/- vs. vehicle 2B/-, adjusted p-value 8.74E-18): 1.585
log2(fold-change) Gm15622 transcript (spinal cord RNA-Seq, RG3039 2B/- vs. vehicle 2B/-, adjusted p-value 9.01E-05): 2.027
share of detectable genes modulated (spinal cord, 2B/+ control mice): less than 0.5%
log2(fold-change), gene Mt1 (spinal cord, 2B/- RG3039 vs 2B/- vehicle, adjusted p-value 1.29E-57): -1.302
log2(fold-change), gene Polr3e (spinal cord, 2B/- RG3039 vs 2B/- vehicle, adjusted p-value 1.67E-54): -1.443
log2(fold-change), gene Fam107a [1]: -1.657
log2(fold-change), gene Fkbp5 [1]: -1.583
log2(fold-change), gene Mt2 (spinal cord, 2B/- RG3039 vs 2B/- vehicle, adjusted p-value 2.67E-76): -1.696
Smn transcripts as detected by RNA-Seq (spinal cord, 2B/- SMA mice): did not appear to increase Smn transcripts
share of the measurable genes with altered expression (spinal cord, 2B/- SMA mice RG3039 vs vehicle): approximately 26.8%
genes with significantly (P < 0.05) altered expression (spinal cord, 2B/- SMA mice RG3039 vs vehicle-treated 2B/-): 5,497 genes
genes affected in opposite directions by disease and by compound treatment (spinal cord, 2B/- mice): 591 genes
ZPR1 expression in whole spinal cord by RNA-seq (vehicle vs RG3039 treated SMA mice): no difference in ZPR1 expression
